Patent US20200288710A1, “SUBSTITUTED SULPHONAMIDES FOR CONTROLLING ANIMAL PESTS” (BAYER CROPSCIENCE AKTIENGESELLSCHAFT, priority 2016, published 2020)

What follows are compounds tested on Meloidogyne incognita (assay: Meloidogyne incognita test). Details: 336 h, lettuce, after 14 days, read-out: nematicidal efficacy (formation of galls).
Assay type: in vivo
Protocol: Meloidogyne incognita Test Solvent: 125.0 parts by weight of acetone To produce a suitable active compound preparation, 1 part by weight of active compound is mixed with the stated amount of solvent and the concentrate is diluted with water to the desired concentration. Vessels are filled with sand, active compound solution, an egg/larvae suspension of the southern rootknot nematode (Meloidogyne incognita) and lettuce seeds. The lettuce seeds germinate and the plants develop. The galls develop on the roots. After 14 days, the nematicidal efficacy in % is determined by the formation of galls. 100% means that no galls were found; 0% means that the number of galls on the treated plants corresponds to the untreated control.

In order of rising pest or weed control at 20 ppm:
1. CCn1cc(C(=O)NS(=O)(=O)c2ccccc2C(F)(F)F)nc1-c1ccccc1Cl [Example 21]  90%
2. CCn1cc(C(=O)NS(=O)(=O)CC(F)(F)F)nc1-c1ccccc1Cl [Example 77]  90%
3. Cc1ccccc1S(=O)(=O)NC(=O)c1cc(-c2ccccc2Cl)n(-c2ncccc2Cl)n1 [Example 261]  90%
4. O=C(NS(=O)(=O)c1ccccc1Cl)c1cc(-c2ccccc2Cl)n(-c2ncccc2Cl)n1 [Example 262]  90%
5. CC(C)Cc1ccc(S(=O)(=O)NC(=O)c2cn(C)c(-c3c(F)cccc3F)n2)cc1 [Example 287]  90%
6. CC(C)Cc1ccc(S(=O)(=O)NC(=O)c2cn(C)c(-c3ccccc3Cl)n2)cc1 [Example 288]  90%
7. Cc1cc(C(=O)NS(=O)(=O)c2ccccc2Br)nn1-c1ccccc1C(F)(F)F [Example 292]  90%
8. COc1ccc(S(=O)(=O)NC(=O)c2cn(C)c(-c3c(F)cccc3F)n2)cn1 [Example 344]  90%
9. Cn1cc(C(=O)NS(=O)(=O)c2cc(Cl)c(Cl)s2)nc1-c1c(F)cccc1F [Example 355]  90%
10. CC(C)c1ccccc1S(=O)(=O)NC(=O)c1cn(C)c(-c2c(F)cccc2F)n1 [Example 359]  90%
11. Cn1cc(C(=O)NS(=O)(=O)c2ccccc2C(C)(C)C)nc1-c1c(F)cccc1F [Example 360]  90%
12. Cn1cc(C(=O)NS(=O)(=O)c2c(C(F)(F)F)cccc2[Si](C)(C)C)nc1-c1c(F)cccc1F [Example 375]  90%
13. Cn1cc(C(=O)NS(=O)(=O)c2ccccc2OC(C)(C)C)nc1-c1c(F)cccc1F [Example 376]  90%
14. COc1cccc(C(C)C)c1S(=O)(=O)NC(=O)c1cn(C)c(-c2c(F)cccc2F)n1 [Example 377]  90%
15. COc1cccc(S(C)(=O)=O)c1S(=O)(=O)NC(=O)c1cn(C)c(-c2c(F)cccc2F)n1 [Example 382]  90%
16. CCOc1cccc(C(C)C)c1S(=O)(=O)NC(=O)c1cn(C)c(-c2c(F)cccc2F)n1 [Example 384]  90%
17. COc1ccc(C(C)(C)C)cc1S(=O)(=O)NC(=O)c1cn(C)c(-c2c(F)cccc2F)n1 [Example 392]  90%
18. Cc1ccc(C(C)C)cc1S(=O)(=O)NC(=O)c1cn(C)c(-c2c(F)cccc2F)n1 [Example 396]  90%
19. Cn1nc(-c2c(F)cccc2F)nc1C(=O)NS(=O)(=O)c1ccccc1Br [Example 408]  90%
20. COc1ccccc1S(=O)(=O)NC(=O)c1nc(-c2c(F)cccc2F)nn1C [Example 409]  90%
21. Cc1ccccc1S(=O)(=O)NC(=O)c1nc(-c2c(F)cccc2F)nn1C [Example 410]  90%
22. CCc1[nH]c(-c2ccc(F)c(F)c2)nc1C(=O)NS(=O)(=O)c1ccccc1Cl [Example 471]  90%
23. CCc1[nH]c(-c2cccc(C)c2C)nc1C(=O)NS(=O)(=O)c1ccccc1Cl [Example 472]  90%
24. Cc1ccccc1S(=O)(=O)NC(=O)c1cn(C)c(-c2ccccc2C(C)C)n1 [Example 473]  90%
25. CCSc1ccccc1-c1nc(C(=O)NS(=O)(=O)c2ccccc2C)cn1C [Example 475]  90%
26. COc1ccccc1S(=O)(=O)NC(=O)c1cn(C)c(-c2cccc3ccccc23)n1 [Example 480]  90%
27. Cn1cc(C(=O)NS(=O)(=O)c2ccccc2Cl)nc1-c1ccccc1C#N [Example 481]  90%
28. Cc1ccccc1S(=O)(=O)NC(=O)c1cn(C)c(-c2ccccc2Oc2ccccc2)n1 [Example 485]  90%
29. COc1ccccc1S(=O)(=O)NC(=O)c1cn(C)c(-c2ccccc2Oc2ccccc2)n1 [Example 486]  90%
30. COc1ccccc1S(=O)(=O)NC(=O)c1cn(C)c(-c2ccncc2)n1 [Example 487]  90%
31. Cc1ccccc1NS(=O)(=O)NC(=O)c1cn(C)c(-c2c(F)cccc2F)n1 [Example 504]  90%
32. Cn1cc(C(=O)NS(=O)(=O)N2CCOCC2)nc1-c1c(F)cccc1F [Example 505]  90%
33. Cn1cc(C(=O)NS(=O)(=O)Nc2ccc(Cl)cc2)nc1-c1c(F)cccc1F [Example 506]  90%
34. Cn1cc(C(=O)NS(=O)(=O)Nc2ccccc2)nc1-c1c(F)cccc1F [Example 507]  90%
35. COc1ccccc1NS(=O)(=O)NC(=O)c1cn(C)c(-c2c(F)cccc2F)n1 [Example 508]  90%
36. Cn1cc(C(=O)NS(=O)(=O)c2ccccc2Cl)nc1-c1cccs1 [Example 516]  90%
37. Cn1cc(C(=O)NS(=O)(=O)c2ccccc2Cl)nc1-c1csc2ccccc12 [Example 522]  90%
38. COc1ccccc1S(=O)(=O)NC(=O)c1cn(C)c(-c2cc(Cl)ccc2Cl)n1 [Example 527]  90%
39. Cc1ccccc1S(=O)(=O)NC(=O)c1cn(C)c(-c2csc3ccccc23)n1 [Example 530]  90%
40. COc1ccccc1S(=O)(=O)NC(=O)c1cn(C)c(-c2ccccc2-c2ccccc2)n1 [Example 534]  90%
41. COc1ccccc1S(=O)(=O)NC(=O)c1cn(C)c(-c2cccc3c2OC(F)(F)O3)n1 [Example 543]  90%
42. CC(C)N(C)S(=O)(=O)NC(=O)c1cn(C)c(-c2c(F)cccc2F)n1 [Example 551]  90%
43. COc1ccc(Cl)c(S(=O)(=O)NC(=O)c2nc(-c3cccc(C(C)C)c3)[nH]c2C)c1 [Example 621]  90%
44. Cc1[nH]c(-c2ccc(F)cc2F)nc1C(=O)NS(=O)(=O)C(C)C [Example 622]  90%
45. COc1ccc(Cl)c(S(=O)(=O)NC(=O)c2nc(-c3c(F)cccc3Cl)[nH]c2C)c1 [Example 624]  90%
46. Cc1[nH]c(-c2ccccc2F)nc1C(=O)NS(=O)(=O)c1ccccc1Cl [Example 626]  90%
47. COc1ccc(Cl)c(S(=O)(=O)NC(=O)c2nc(-c3ccccc3F)[nH]c2C)c1 [Example 627]  90%
48. CCn1cc(C(=O)NS(=O)(=O)c2cccc(Cl)c2)nc1-c1ccccc1Cl [Example 40]  100%
49. Cc1ccccc1-c1nc(C(=O)NS(=O)(=O)c2ccc(Cl)cc2)cn1C [Example 49]  100%
50. Cn1cc(C(=O)NS(=O)(=O)Cc2cccc(Cl)c2)nc1-c1ccccc1Cl [Example 61]  100%
51. Cn1cc(C(=O)NS(=O)(=O)Cc2ccc(Cl)cc2)nc1-c1ccccc1Cl [Example 63]  100%
52. CCc1[nH]c(-c2cccc(Cl)c2Cl)nc1C(=O)NS(=O)(=O)c1ccccc1C [Example 260]  100%
53. O=C(NS(=O)(=O)c1c(Cl)cccc1Cl)c1cc(-c2ccccc2Cl)n(-c2ncccc2Cl)n1 [Example 263]  100%
54. O=C(NS(=O)(=O)c1ccccc1Cl)c1cc(-c2ncccc2Cl)n(-c2ccccc2Cl)n1 [Example 264]  100%
55. Cc1cccc(C)c1S(=O)(=O)NC(=O)c1cc(-c2ncccc2Cl)n(-c2ccccc2Cl)n1 [Example 267]  100%
56. Cc1cccc(C2CCCC2)c1S(=O)(=O)NC(=O)c1cn(C)c(-c2c(F)cccc2F)n1 [Example 362]  100%
57. COc1cccc(OC(C)C)c1S(=O)(=O)NC(=O)c1cn(C)c(-c2c(F)cccc2F)n1 [Example 380]  100%
58. CCn1c(C(=O)NS(=O)(=O)c2ccccc2C)nc(-c2c(F)cccc2F)c1C [Example 417]  100%
59. COc1ccc(Cl)c(S(=O)(=O)NC(=O)c2cc(-c3ncccc3Cl)n(-c3ccccc3Cl)n2)c1 [Example 457]  100%
60. Cn1cc(C(=O)NS(=O)(=O)c2ccccc2Cl)nc1-c1ccccc1Oc1ccccc1 [Example 484]  100%
61. Cn1cc(C(=O)NS(=O)(=O)c2ccccc2Cl)nc1-c1ccc(Cl)c(Cl)c1 [Example 535]  100%
62. COc1ccccc1S(=O)(=O)NC(=O)c1cn(C)c(-c2ccc(Cl)c(Cl)c2)n1 [Example 537]  100%
63. Cn1cc(C(=O)NS(=O)(=O)c2ccccc2Cl)nc1-c1cccc2c1OC(F)(F)O2 [Example 541]  100%
64. Cn1cc(C(=O)NS(=O)(=O)c2ccccc2Cl)nc1-c1ccc(F)c(F)c1 [Example 544]  100%
65. Cc1ccccc1S(=O)(=O)NC(=O)c1cn(C)c(-c2ccc(F)c(F)c2)n1 [Example 545]  100%
66. COc1ccccc1S(=O)(=O)NC(=O)c1cn(C)c(-c2ccc(F)c(F)c2)n1 [Example 546]  100%
67. Cn1c(-c2ccccc2Cl)nc(C(=O)NS(=O)(=O)c2ccccc2Cl)c1Br [Example 580]  100%
68. Cc1[nH]c(-c2ccc(Cl)c(Cl)c2)nc1C(=O)NS(=O)(=O)c1ccccc1Cl [Example 614]  100%
69. Cc1[nH]c(-c2c(F)cccc2Cl)nc1C(=O)NS(=O)(=O)c1ccccc1Cl [Example 623]  100%

What follows are compounds tested on Myzus persicae (assay: Myzus persicae oral test). Details: 120 h, 20 ppm, oral uptake, after 5 days, read-out: efficacy.
Assay type: in vivo
Summary of the method: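 Compound dissolved in acetone, diluted in water, then mixed 50:150 μl with IPL41 insect medium (33%+15% sugar). Mixed-population green peach aphids feed through a parafilm seal on the solution; mortality scored as % efficacy after 5 days (100% = all killed).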

In order of rising pest or weed control at 20 ppm:
1. CCn1cc(C(=O)NS(=O)(=O)CC(F)(F)F)nc1-c1ccccc1Cl [Example 77]  90%
2. CCn1cc(C(=O)NS(=O)(=O)c2ccccc2C(F)(F)F)nc1-c1ccccc1Cl [Example 21]  100%
3. CCn1cc(C(=O)NS(=O)(=O)c2cccc(Cl)c2)nc1-c1ccccc1Cl [Example 40]  100%
4. Cc1ccccc1-c1nc(C(=O)NS(=O)(=O)c2ccc(Cl)cc2)cn1C [Example 49]  100%
5. Cn1cc(C(=O)NS(=O)(=O)Cc2cccc(Cl)c2)nc1-c1ccccc1Cl [Example 61]  100%
6. Cn1cc(C(=O)NS(=O)(=O)Cc2ccc(Cl)cc2)nc1-c1ccccc1Cl [Example 63]  100%
